This is an account of results in ChEMBL document CHEMBL4811304, “Design, synthesis and biological evaluation of dual mTOR/HDAC6 inhibitors in MDA-MB-231 cells” (Bioorg Med Chem Lett, 2021).

Assay [1] addresses T1, Serine/threonine-protein kinase mTOR (Homo sapiens, UniProt P42345). The assay can be described thus: Inhibition of mTOR (unknown origin) at 0.5 uM relative to control.
Assay [2] addresses T2, Protein deacetylase HDAC6 (Homo sapiens, UniProt Q9UBN7).
T2 sequence (Q9UBN7 whole entry): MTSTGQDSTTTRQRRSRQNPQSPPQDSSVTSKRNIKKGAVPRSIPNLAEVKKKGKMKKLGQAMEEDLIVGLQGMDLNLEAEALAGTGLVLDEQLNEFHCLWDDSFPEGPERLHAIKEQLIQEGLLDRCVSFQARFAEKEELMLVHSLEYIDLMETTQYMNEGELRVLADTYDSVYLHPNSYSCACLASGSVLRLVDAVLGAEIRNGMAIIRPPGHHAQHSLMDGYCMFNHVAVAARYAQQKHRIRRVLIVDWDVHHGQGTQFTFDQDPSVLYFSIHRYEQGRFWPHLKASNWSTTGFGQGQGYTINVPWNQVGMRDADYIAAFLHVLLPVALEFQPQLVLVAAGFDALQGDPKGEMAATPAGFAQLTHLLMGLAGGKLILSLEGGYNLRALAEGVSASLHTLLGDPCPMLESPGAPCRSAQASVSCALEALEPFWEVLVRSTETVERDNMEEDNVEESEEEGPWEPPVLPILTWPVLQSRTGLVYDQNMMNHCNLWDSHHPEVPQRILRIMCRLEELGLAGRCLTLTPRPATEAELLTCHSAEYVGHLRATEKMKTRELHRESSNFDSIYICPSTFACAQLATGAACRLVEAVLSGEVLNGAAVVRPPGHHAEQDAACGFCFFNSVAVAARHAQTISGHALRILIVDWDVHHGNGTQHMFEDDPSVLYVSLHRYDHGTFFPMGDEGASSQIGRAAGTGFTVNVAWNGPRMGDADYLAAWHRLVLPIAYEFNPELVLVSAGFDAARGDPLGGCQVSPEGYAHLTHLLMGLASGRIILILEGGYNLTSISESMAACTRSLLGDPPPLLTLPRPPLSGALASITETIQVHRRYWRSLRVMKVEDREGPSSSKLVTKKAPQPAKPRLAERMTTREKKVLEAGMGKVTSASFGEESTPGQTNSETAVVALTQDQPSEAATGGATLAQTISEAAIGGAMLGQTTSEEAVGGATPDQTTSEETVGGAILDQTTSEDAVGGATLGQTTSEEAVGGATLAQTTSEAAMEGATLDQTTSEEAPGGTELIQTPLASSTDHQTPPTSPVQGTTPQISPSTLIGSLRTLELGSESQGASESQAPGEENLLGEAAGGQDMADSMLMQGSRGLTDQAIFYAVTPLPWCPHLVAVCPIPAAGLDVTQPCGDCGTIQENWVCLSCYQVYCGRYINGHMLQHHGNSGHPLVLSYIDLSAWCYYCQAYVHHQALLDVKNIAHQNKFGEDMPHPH
The assay can be described thus: Inhibition of HDAC6 (unknown origin).

Assay [3] has as its target T1, Serine/threonine-protein kinase mTOR. The assay can be described thus: Inhibition of mTOR (unknown origin).

As a reminder, the inhibition is the percentage by which the read-out fell short of the control. Read a high inhibition as a strong effect. As a reminder, the IC50 is the concentration that inhibits the measured activity by half. Low readings indicate inhibition by little substance, high ones a need for much substance.

In assay [1], `COc1cc(OC)c2c(N3CCOC[C@@H]3C)nc(-c3ccc(C(=O)NO)cc3)nc2c1` had an inhibition of 55.4%. In the case of `COc1cc(OC)c2c(N3CCCC3)nc(-c3ccc(C(=O)NO)cc3)nc2c1`, in assay [1], the inhibition was determined as 9.7%.

Regarding `C[C@@H]1COCCN1c1nc(-c2ccc(C(=O)NO)cc2)nc2ccccc12`, the inhibition in assay [1] was 68.5%. `O=C(NO)c1ccc(-c2nc(N3CCCCC3)c3ccc(Cl)cc3n2)cc1` yielded an inhibition in assay [1] of 14.9%.

On to `O=C(NO)c1ccc(-c2nc(N3CCOCC3)c3ccccc3n2)cc1`, for which the inhibition in assay [1] worked out at 60.1%. With `O=C(NO)c1ccc(-c2nc(N3CCCCC3)c3ccccc3n2)cc1`, the inhibition in assay [1] turned out to be 23.6%. As for `C[C@@H]1COCCN1c1nc(-c2ccc(C(=O)NO)cc2)nc2cc(Cl)ccc12`, in assay [1], the inhibition was 78.8%.

Consider `O=C(NO)c1ccc(-c2nc(N3CCSCC3)c3ccccc3n2)cc1`, for which the inhibition in assay [1] was 44.7%. In assay [1], `COc1cc(OC)c2c(N3CCS(=O)(=O)CC3)nc(-c3ccc(C(=O)NO)cc3)nc2c1` showed an inhibition of 34.8%. For the compound `Cn1c(=O)n(-c2ccc(C(C)(C)C#N)cc2)c2c3cc(-c4cnc5ccccc5c4)ccc3ncc21` [DACTOLISIB], the IC50 in assay [2] came out at 2 nM. In assay [1], this compound registered an inhibition of 95.4%. In assay [1], `COc1cc(OC)c2c(N3CCCCC3)nc(-c3ccc(C(=O)NO)cc3)nc2c1` displayed an inhibition of 11.5%. On the same count and under the same terms, the figure for `C[C@H]1COCCN1c1nc(-c2ccc(C(=O)NO)cc2)nc2ccccc12` is 67.3%; for `CN1CCN(c2nc(-c3ccc(C(=O)NO)cc3)nc3ccccc23)CC1` it is 76.8%.

Compound `C[C@H]1COCCN1c1nc(-c2ccc(C(=O)NO)cc2)nc2cc(Cl)ccc12` gave an inhibition in assay [1] of 82.3%. The same measure, in the same setting: the figure for `COc1cc(OC)c2c(N3CCOCC3)nc(-c3ccc(C(=O)NO)cc3)nc2c1` is 48.9%; for `O=C(NO)c1ccc(-c2nc(N3CCS(=O)(=O)CC3)c3ccc(Cl)cc3n2)cc1` it is 39.7%. Take `O=C(NO)c1ccc(-c2nc(N3CCC(F)(F)CC3)c3ccccc3n2)cc1`: the inhibition in assay [1] turned out to be 18.4%. Still for that read-out and setting: the figure for `COc1cc(OC)c2c(N3CCOC[C@H]3C)nc(-c3ccc(C(=O)NO)cc3)nc2c1` is 57.2%; for `COc1cc(OC)c2c(N3CCSCC3)nc(-c3ccc(C(=O)NO)cc3)nc2c1` it is 33.8%. Still for that read-out and setting: the result for `O=C(NO)c1ccc(-c2nc(N3CCSCC3)c3ccc(Cl)cc3n2)cc1` reads 44.9%.

For the compound `COc1cc(OC)c2c(N3CCC(F)(F)CC3)nc(-c3ccc(C(=O)NO)cc3)nc2c1`, the inhibition in assay [1] was 10.6%. `O=C(NO)c1ccc(-c2nc(N3CCC(F)(F)CC3)c3ccc(Cl)cc3n2)cc1`: the inhibition in assay [1] was determined as 18.2%. The same measure, in the same setting: the result for `COc1cc(OC)c2c(N3CCN(C)CC3)nc(-c3ccc(C(=O)NO)cc3)nc2c1` reads 67.6%; that for `O=C(NO)c1ccc(-c2nc(N3CCCC3)c3ccccc3n2)cc1`, 11.3%.

`O=C(NO)c1ccc(-c2nc(N3CCCC3)c3ccc(Cl)cc3n2)cc1` yielded an inhibition in assay [1] of 18.3%. In the case of `CCNC(=O)Nc1ccc(-c2nc3c(c(N4CCOC[C@@H]4C)n2)CCN(C2COC2)C3)cc1` [RG-7603], the IC50 in assay [3] was found to be 3.8 nM.

As for `O=C(NO)c1ccc(-c2nc(N3CCS(=O)(=O)CC3)c3ccccc3n2)cc1`, the inhibition in assay [1] was 37.4%. `O=C(NO)c1ccc(-c2nc(N3CCOCC3)c3ccc(Cl)cc3n2)cc1`: in assay [1], the inhibition turned out to be 75.5%.
